Assay [1] concerns the target Type 2 KATP channels (central neurons). Particulars: central neurons (e.g. ventromedial hypothalamic nucleus), read-out: Ki of ATP; cited from earlier work.
In assay [2] the target is Type 1 channels in cardiac myocytes. Particulars: read-out: Ki of intracellular ATP; cited from earlier work.
The next assay addresses T1, ROMK1 K+ channels (Rattus norvegicus, UniProt P35560).
T1 construct: This coding region encodes a protein of 391 amino acids; expressed in transfected cells; host or cells: Xenopus laevis oocytes injected with cRNA transcribed in vitro from ROMK1 cDNA (pSPORT1)
T1 sequence (P35560 1-391): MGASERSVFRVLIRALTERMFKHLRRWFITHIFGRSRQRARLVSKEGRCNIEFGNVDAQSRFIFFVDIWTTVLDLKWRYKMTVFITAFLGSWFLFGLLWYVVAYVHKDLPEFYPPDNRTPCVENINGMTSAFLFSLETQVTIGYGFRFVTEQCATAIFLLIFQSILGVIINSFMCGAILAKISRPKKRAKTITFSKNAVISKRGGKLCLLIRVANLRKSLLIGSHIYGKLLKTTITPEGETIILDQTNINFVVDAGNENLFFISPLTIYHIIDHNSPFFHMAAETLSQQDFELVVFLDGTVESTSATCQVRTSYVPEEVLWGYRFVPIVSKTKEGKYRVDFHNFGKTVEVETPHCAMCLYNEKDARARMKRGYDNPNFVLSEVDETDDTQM
Nature of the assay: Single channel patch clamp recording, inside-out patches excised from ROMK1 mRNA-injected Xenopus oocytes. It counts as cell-based. The procedure:
FIG. 2. Single channel characteristics of ATP-sensitive ROMK1 K^+ channels expressed in Xenopus oocytes. Channel activities were recorded in inside-out patches excised from oocyte membranes.
Changes made in bath solution ATP concentration are indicated above the current recording: ATP-free (solid line), 0.025 mM ATP (dashed line). Recordings were taken at VH =-80 mV. Interruptions were introduced into the recording shown in order to display the entire current tracing. Expanded current tracings taken from the continuous recording are indicated by numbers and arrowheads.
(E) The inhibitory effect of 2.5 mM ATP on channel activity. Changes in bath solution ATP concentration are indicated above the current recording; 0.025 mM ATP (dashed line), 2.5 mM ATP (solid line). […] The recording was taken at VH =-40 mV. Expanded current tracings taken from the recording at various time intervals are indicated by arrows and numbers. The pipette solution contained (mM): 150 or 50 KCl, 1 CaCl2, 1 MgCl2, 5 HEPES (pH 7.4). The bath solution contained (mM): 0,0.025 or 2.5 MgATP, 150 KCl, 1 MgCl2 , 5 EGTA, 5 HEPES (pH 7.4).
Single channel recordings were obtained in oocytes injected with ROMK1 mRNA following vitelline membrane removal using standard patch clamp techniques to further characterize the properties of ROMK1 K^+ currents (FIG. 2). […] At negative membrane potentials, the amplitude of inward currents increased linearly with increasing hyperpolarization relative to Erev (Erev =O mV for symmetrical K^+ solutions). […] Similar inwardly rectifying currents were also observed in the cell-attached patch configuration. The K^+ selectivity of these currents was confirmed by varying the pipette solution K^+ concentration ([K^+ ]ext). Reversal potentials obtained with pipette solutions containing either 150 mM KCl or 50 mM KCl+100 mM NaCl were in complete agreement with the Nernstian predictions for Erev under these conditions (FIGS. 2B, 2C); the permeability ratio (PNa /PK) of 0.025 for these channels indicates high K^+ selectivity. […] Epithelial KATP channels (classified as Type 3) present in renal tubular cells from the thick ascending limb of Henle and the conical collecting duct (Bliech et al., Pflugers Arch. 415:449 (1990); Wang et al., Am. J. Physiol. 258:F244 (1990); Wang et al., Am. J. Physiol. 259:F494 (1990)) have single conductances of ~25-60 pS and share similar characteristics.
The effect of intracellular ATP on ROMK1 currents was also investigated using the inside-out patch configuration. […] In contrast, channel activity was routinely maintained for 30 minutes or longer by excision of patches directly into a bath solution containing 25 μM MgATP. […] Channels with these properties and electrophysiological characteristics were never observed in either cell-attached or inside-out patches from H2 O-injected control oocytes; in contrast, several channels of this type were typically active in patches from ROMK1 mRNA-injected oocytes. The incidence of ROMK1 channels in patches was 94% (63 of 67 patches) which was consistent with the high channel density observed in these experiments. […] In channels of both types, channel rundown rapidly occurs in excised membrane patches; this loss of channel activity is reversed or prevented, at least partially, by the addition of MgATP (Ashcroft et al., Cellular Signalling 2:197 (1990); Ashcroft, F. M., Ann. Rev. Neurosci. 11:97 (1988); Nichols et al., Am. J. Physiol. 261:H1675 (1991); Wang et al., J. Gen. Physiol. 98:35 (1991)).

Assay [3] deals with renal Type 3 KATP channels. The settings on record: read-out: Ki of intracellular ATP; cited from earlier work.
Assay [4] deals with Type 1 channels in pancreatic β-cells. The settings on record: read-out: Ki of intracellular ATP; cited from earlier work.
Assay [5] deals with Ba2+-sensitive potassium currents (IK(Ba)) expressed from rat kidney ISOM poly(A)+ RNA. As to the kind of experiment: Two-electrode voltage clamp of Xenopus oocytes injected with rat kidney ISOM poly(A)+ RNA. The class given is cell-based. The settings on record: 5 mM Ba2+, [K+]ext = 50 mM, test potentials -80 to 0 mV. Here is the method: (A) Representative current tracings evoked by 450 ms voltage steps ranging from -80 mV to 0 mV in 20 mV increments from a holding potential (VH) of -60 mV in oocytes injected with ~25 ng ISOM poly(A)^+ RNA or 50 nl H2 O [K^+ ]ext =50 mM.
(B) Current-voltage relationships of IK(Ba) in a representative ISOM poly(A)^+ RNA-injected oocyte ( ) and a H2 O-injected control (.circle.). […] Both current amplitudes and Vm were measured 75 ms after initiation of test pulses; Ba^2+ -sensitive current (KK(Ba)) amplitudes were obtained by determining the difference in current amplitudes before and after the addition of 5 mM Ba^2+ at each test potential and plotted as a function of observed Vm.
(§1) Size-fractionated mRNA with a size of ~2-3 kb yielded a highly augmented mean inward IK(Ba) sixteen-fold greater than that of H2 O-injected controls when injected into oocytes (FIG. 1D) and was therefore used to construct a directional cDNA library in the vector pSPORT1. RNA transcribed in vitro from pooled clones using T7 RNA polymerase was injected into Xenopus oocytes and tested for IK(Ba) currents using two-electrode voltage clamping. Functional screening of cRNA led to the identification of a 2.1 kb cDNA, ROMK1.

In the next assay the target is T2, ROMK1 (Rattus norvegicus, UniProt P35560).
T2 construct: This coding region encodes a protein of 391 amino acids; expressed in transfected cells; host or cells: Xenopus laevis oocytes injected with cRNA transcribed in vitro from ROMK1 cDNA (pSPORT1)
T2 sequence (P35560 1-391): T1 sequence (P35560 1-391)
Nature of the assay: Two-electrode voltage clamp of Xenopus oocytes injected with ROMK1 mRNA. It counts as cell-based. The settings on record: 10 mM, [K+]ext = 50 mM, test potentials -60 to 0 mV. Here is the method: (E) Representative current tracings in oocytes injected with ~0.3 ng ROMK1 mRNA or H2 O evoked by 450 ms test pulses from a VH =-45 mV to test potentials from -60 mV to 0 mV in 20 mV increments in the presence or absence of 10 mM Ba2+, [K+ ]ext =50 mM. ROMK1 currents were blocked by 10 mM Ba^2+ at the test potentials used.
as §1

pKi: −log10 of the molar value. “Also recorded” adds a separate entry of the source.

Turning to `Nc1ncnc2c1ncn2[C@@H]1O[C@H](COP(=O)(O)OP(=O)(O)OP(=O)(O)O)[C@@H](O)[C@H]1O` [ATP], the pKi in assay [1] was 2.52 to 2.70; in assay [2], 4.00 to 4.77; in assay [3] it was 3.30 to 3.70; in assay [4], 4.70 to 5.00. The “effect on channel activity of high ATP at the cytosolic face of inside-out patches” value on ROMK1 K+ channels (1.0-2.5 mM ATP, patches initially excised into bath containing 25 μM ATP) is “rapid and marked inhibition of channel activity”. Also, the “effect of 2.5 mM ATP on channel activity” value at ROMK1 K+ channels (ATP raised from 0.025 mM to 2.5 mM by puffer pipette, VH = -40 mV) is “inhibition of channel activity”. Besides, the “restoration of channel activity following channel rundown” value on ROMK1 K+ channels (readdition of 25 μM (0.025 mM) ATP after ATP-free bath) is listed as “Partial restoration of channel activity; also recorded: channel recovery”. For the same compound, the “reversibility of inhibition by ATP” value on ROMK1 K+ channels (wash-out of the high ATP-containing solution) is on record as “reversible”.

Take `[Ba+2]` [Ba^2+]: in assay [5], the “inhibition of currents expressed in RNA-injected oocytes” value was “marked inhibition”. On ROMK1, the “inhibition (block) of ROMK1 currents” value is listed as “blocked”.

As to `Nc1ncnc2c1ncn2[C@@H]1O[C@H](COP(=O)(O)OP(=O)(O)OP(=O)(O)O)[C@@H](O)[C@H]1O` [MgATP], at ROMK1 K+ channels (patches excised directly into bath solution containing 25 μM MgATP), the “time channel activity was maintained in excised patches” value was at least 30 min.

In the case of `CC[N+](CC)(CC)CC` [TEA^+], the “inhibition (block) of ROMK1 currents” value at ROMK1 is listed as “no inhibition”.

Values taken from patent US5356775A, “Primary structure for functional expression from complementary DNA of a mammalian ATP-sensitive potassium channel” (Brigham & Women's Hospital, priority 1992, dated 1994).
